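Five compound concentrations were applied to cells in 96-well plates for 48 hours; endpoints were derived by simple linear interpolation of the resulting dose-response curve. TGI marks complete inhibition of growth.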
Legend:
Assay in all cases: inhibition of tumour cell growth, NCI panel, 48 h
DLD-1 colon = system: DLD-1 colon
M19-MEL melanoma = system: M19-MEL melanoma
SW-620 colon = system: SW-620 colon
U251 CNS = system: U251 CNS
UACC-62 melanoma = system: UACC-62 melanoma
NCI-H522 lung = system: NCI-H522 lung
XF 498 CNS = system: XF 498 CNS
SK-MEL-5 melanoma = system: SK-MEL-5 melanoma
CCRF-CEM leukemia = system: CCRF-CEM leukemia
OVCAR-4 ovarian = system: OVCAR-4 ovarian
OVCAR-5 ovarian = system: OVCAR-5 ovarian
TK-10 renal = system: TK-10 renal
SN12C renal = system: SN12C renal
SK-MEL-28 melanoma = system: SK-MEL-28 melanoma
SF-539 CNS = system: SF-539 CNS
NCI-H226 lung = system: NCI-H226 lung
HOP-62 NSCLC = system: HOP-62 NSCLC
K-562 leukemia = system: K-562 leukemia
UO-31 renal = system: UO-31 renal
A549 NSCLC = system: A549 NSCLC
MALME-3M melanoma = system: MALME-3M melanoma
OVCAR-3 ovarian = system: OVCAR-3 ovarian
HOP-92 NSCLC = system: HOP-92 NSCLC
DMS 273 small cell lung = system: DMS 273 small cell lung
HCC-2998 colon = system: HCC-2998 colon
KM20L2 colon = system: KM20L2 colon
SF-268 CNS = system: SF-268 CNS
M14 melanoma = system: M14 melanoma
MOLT-4 leukemia = system: MOLT-4 leukemia
NCI-H23 lung = system: NCI-H23 lung
RXF 393 renal = system: RXF 393 renal
HCT-116 colon = system: HCT-116 colon
HCT-15 colon = system: HCT-15 colon
HL-60(TB) leukemia = system: HL-60(TB) leukemia
IGROV1 ovarian = system: IGROV1 ovarian
OVCAR-8 ovarian = system: OVCAR-8 ovarian
786-0 renal = system: 786-0 renal
SNB-75 CNS = system: SNB-75 CNS
SR leukemia = system: SR leukemia
HT29 colon = system: HT29 colon
SK-MEL-2 melanoma = system: SK-MEL-2 melanoma
ACHN renal = system: ACHN renal
RPMI-8226 leukemia = system: RPMI-8226 leukemia
SF-295 CNS = system: SF-295 CNS
SNB-19 CNS = system: SNB-19 CNS
LXFL 529 NSCLC = system: LXFL 529 NSCLC
SNB-78 CNS = system: SNB-78 CNS
NCI-H460 lung = system: NCI-H460 lung
SK-OV-3 ovarian = system: SK-OV-3 ovarian
A498 renal = system: A498 renal
LOX IMVI melanoma = system: LOX IMVI melanoma
COLO 205 colon = system: COLO 205 colon
EKVX NSCLC = system: EKVX NSCLC
DMS 114 small cell lung = system: DMS 114 small cell lung
UACC-257 melanoma = system: UACC-257 melanoma
HS 578T breast = system: HS 578T breast
NCI/ADR-RES ovarian = system: NCI/ADR-RES ovarian
MDA-N = system: MDA-N
PC-3 prostate = system: PC-3 prostate
MCF7 breast = system: MCF7 breast
KM12 colon = system: KM12 colon
BT-549 breast = system: BT-549 breast
MDA-MB-231 breast = system: MDA-MB-231 breast
CAKI-1 renal = system: CAKI-1 renal
T-47D breast = system: T-47D breast
DU-145 prostate = system: DU-145 prostate
MDA-MB-435 = system: MDA-MB-435

Structure (SMILES): O=C(CC(C(=O)c1ccsc1)c1cccs1)c1cccs1 (centres undefined)
- TGI (DLD-1 colon): > 100 µM
- TGI (M19-MEL melanoma): > 100 µM
- TGI (SW-620 colon): > 100 µM
- TGI (U251 CNS): > 100 µM
- TGI (UACC-62 melanoma): > 100 µM
- TGI (NCI-H522 lung): > 100 µM
- TGI (XF 498 CNS): > 100 µM
- TGI (SK-MEL-5 melanoma): 85.6 µM
- TGI (CCRF-CEM leukemia): > 100 µM
- TGI (OVCAR-4 ovarian): > 100 µM
- TGI (OVCAR-5 ovarian): > 100 µM
- TGI (TK-10 renal): > 100 µM
- TGI (SN12C renal): > 100 µM
- TGI (SK-MEL-28 melanoma): > 100 µM
- TGI (SF-539 CNS): > 100 µM
- TGI (NCI-H226 lung): > 100 µM
- TGI (HOP-62 NSCLC): > 100 µM
- TGI (K-562 leukemia): > 100 µM
- TGI (UO-31 renal): 92.7 µM
- TGI (A549 NSCLC): > 100 µM
- TGI (MALME-3M melanoma): > 100 µM
- TGI (OVCAR-3 ovarian): > 100 µM
- TGI (HOP-92 NSCLC): > 100 µM
- TGI (DMS 273 small cell lung): > 100 µM
- TGI (HCC-2998 colon): > 100 µM
- TGI (KM20L2 colon): > 100 µM
- TGI (SF-268 CNS): > 100 µM
- TGI (M14 melanoma): > 100 µM
- TGI (MOLT-4 leukemia): > 100 µM
- TGI (NCI-H23 lung): > 100 µM
- TGI (RXF 393 renal): > 100 µM
- TGI (HCT-116 colon): > 100 µM
- TGI (HCT-15 colon): > 100 µM
- TGI (HL-60(TB) leukemia): > 100 µM
- TGI (IGROV1 ovarian): > 100 µM
- TGI (OVCAR-8 ovarian): > 100 µM
- TGI (786-0 renal): > 100 µM
- TGI (SNB-75 CNS): > 100 µM
- TGI (SR leukemia): > 100 µM
- TGI (HT29 colon): > 100 µM
- TGI (SK-MEL-2 melanoma): > 100 µM
- TGI (ACHN renal): > 100 µM
- TGI (RPMI-8226 leukemia): > 100 µM
- TGI (SF-295 CNS): > 100 µM
- TGI (SNB-19 CNS): > 100 µM
- TGI (LXFL 529 NSCLC): > 100 µM
- TGI (SNB-78 CNS): > 100 µM
- TGI (NCI-H460 lung): > 100 µM
- TGI (SK-OV-3 ovarian): > 100 µM
- TGI (A498 renal): > 100 µM
- TGI (LOX IMVI melanoma): > 100 µM
- TGI (COLO 205 colon): > 100 µM
- TGI (EKVX NSCLC): > 100 µM
- TGI (DMS 114 small cell lung): > 100 µM
- TGI (UACC-257 melanoma): > 100 µM

Structure (SMILES): NC1CC(=O)c2c(I)sc(I)c21 (centres undefined)
- TGI (SW-620 colon): 46.1 µM
- TGI (HS 578T breast): 75 µM
- TGI (U251 CNS): 51.1 µM
- TGI (UACC-62 melanoma): 32.6 µM
- TGI (NCI-H522 lung): 24.3 µM
- TGI (NCI/ADR-RES ovarian): > 61.7 µM
- TGI (MDA-N): 44.7 µM
- TGI (SK-MEL-5 melanoma): > 71.1 µM
- TGI (CCRF-CEM leukemia): > 34.3 µM
- TGI (OVCAR-4 ovarian): 38.4 µM
- TGI (OVCAR-5 ovarian): 53 µM
- TGI (TK-10 renal): 37.2 µM
- TGI (SN12C renal): > 60.6 µM
- TGI (SK-MEL-28 melanoma): 43.2 µM
- TGI (SF-539 CNS): 44.8 µM
- TGI (NCI-H226 lung): 45.6 µM
- TGI (PC-3 prostate): 42.8 µM
- TGI (HOP-62 NSCLC): 40.1 µM
- TGI (K-562 leukemia): > 100 µM
- TGI (UO-31 renal): 35.5 µM
- TGI (A549 NSCLC): > 79.5 µM
- TGI (MALME-3M melanoma): 29.8 µM
- TGI (MCF7 breast): > 67.7 µM
- TGI (OVCAR-3 ovarian): 38.7 µM
- TGI (HOP-92 NSCLC): 43.5 µM
- TGI (HCC-2998 colon): 44.2 µM
- TGI (SF-268 CNS): 46.1 µM
- TGI (M14 melanoma): > 77.1 µM
- TGI (KM12 colon): 32.9 µM
- TGI (BT-549 breast): 37.4 µM
- TGI (MOLT-4 leukemia): 44.8 µM
- TGI (NCI-H23 lung): 35 µM
- TGI (RXF 393 renal): > 60.8 µM
- TGI (HCT-116 colon): > 49.4 µM
- TGI (HCT-15 colon): 45.8 µM
- TGI (HL-60(TB) leukemia): 14.6 µM
- TGI (MDA-MB-231 breast): 38.1 µM
- TGI (IGROV1 ovarian): 33.1 µM
- TGI (OVCAR-8 ovarian): > 55.4 µM
- TGI (786-0 renal): > 53.4 µM
- TGI (SNB-75 CNS): 37.9 µM
- TGI (SR leukemia): 48.4 µM
- TGI (CAKI-1 renal): 27.1 µM
- TGI (HT29 colon): 50.6 µM
- TGI (SK-MEL-2 melanoma): 36.2 µM
- TGI (T-47D breast): > 73 µM
- TGI (ACHN renal): 42.1 µM
- TGI (RPMI-8226 leukemia): 29.9 µM
- TGI (SF-295 CNS): 39.8 µM
- TGI (SNB-19 CNS): 46.9 µM
- TGI (NCI-H460 lung): 66.8 µM
- TGI (SK-OV-3 ovarian): > 100 µM
- TGI (A498 renal): 37.1 µM
- TGI (DU-145 prostate): > 55.1 µM
- TGI (LOX IMVI melanoma): 27.2 µM
- TGI (COLO 205 colon): > 63 µM
- TGI (EKVX NSCLC): 39.3 µM
- TGI (UACC-257 melanoma): 39.9 µM
- TGI (MDA-MB-435): 38.7 µM

Source: PubChem BioAssay (NCI)
